Laboratory results published in US5059589A, “Glaucoma treatment” (Abbott Laboratories, priority 1990, dated 1991).
Structures can show the parent of a compound that is named as a salt.

Test system: intraocular pressure in rabbits
Assay: Effects of topically administered renin inhibiting compounds on intraocular pressure of rabbits
Format: in vivo, Male albino, New Zealand rabbits
Conditions: topical 0.1 ml, 0.1% (w/v)
Description: The antiglaucoma activity of the compounds was tested by measuring the effect on intraocular pressure in rabbits as described by Tinjum, A.M., Acta Ophthalmologica, 50, 677 (1972). Male albino, New Zealand rabbits were placed in restraining devices and the intraocular pressure was measured with an applamatic tonometer. Exactly 0.1 ml of an isotonic saline solution containing a test compound was instilled into the conjuctival sac and the intraocular pressure was measured at 5, 15, 30, 60, 90, 120 and 180 minutes afterwards.

[1] = 15 minutes after administration
[2] = 30 minutes after administration
[3] = 60 minutes after administration
[4] = 90 minutes after administration
[5] = 120 minutes after administration
[6] = 180 minutes after administration

Compound | Mean Intraocular Pressure in mmHg (0 minutes after administration) | Mean Intraocular Pressure in mmHg (5 minutes after administration) | Mean Intraocular Pressure in mmHg [1] | Mean Intraocular Pressure in mmHg [2] | Mean Intraocular Pressure in mmHg [3] | Mean Intraocular Pressure in mmHg [4] | Mean Intraocular Pressure in mmHg [5] | Mean Intraocular Pressure in mmHg [6]
CC(C)C[C@H](O)[C@H](O)[C@H](CC1CCCCC1)NC(=O)[C@H](Cc1cnc[nH]1)NC(=O)[C@H](Cc1ccccc1)NC(=O)N1CCOCC1 [Compound I, (4-morpholinyl)carbonyl Phe-His amide of 2(S) amino-1 cyclohexyl-(3R),4(S)dihydroxy-6-methylheptane] | 19.0 mmHg | 18.2 mmHg | 16.5 mmHg | 12.2 mmHg | 13.9 mmHg | 15.1 mmHg | 16.8 mmHg | 20.4 mmHg
COc1ccc(C[C@H](NC(=O)CC(C)(C)N)C(=O)N[C@@H](Cc2cnc[nH]2)C(=O)N[C@@H](CC2CCCCC2)[C@@H](O)[C@@H](O)CC(C)C)cc1 [Compound II, H-((beta,betadimethyl)-beta-Ala)-(4 OCH3)Phe-His amide of 2(S)-amino-1-cyclohexyl-3(R),4(S) dihydroxy-6-methylheptane di-acetic acid salt] | 18.4 mmHg | 15.0 mmHg | 13.5 mmHg | 13.2 mmHg | 13.4 mmHg | 17.1 mmHg | 19.0 mmHg | 17.2 mmHg
CC(C)C[C@H](O)[C@H](O)[C@H](CC1CCCCC1)NC(=O)[C@H](Cc1cnc[nH]1)NC(=O)[C@H](Cc1ccccc1)NC(=O)N1CCC(O)CC1 [Compound III, (1-(4 hydroxypiperidinyl)carbonyl)-Phe-His amide of 2(S)-amino 1-cyclohexyl-3(R),4(S) dihydroxy 6-methylheptane] | 19.1 mmHg | 15.5 mmHg | 12.4 mmHg | 13.9 mmHg | 14.9 mmHg | 16.3 mmHg | 17.8 mmHg | 18.2 mmHg
CCN1C[C@@H]([C@H](O)[C@H](CC2CCCCC2)NC(=O)[C@H](Cc2cnc[nH]2)NC(=O)[C@@H](CC(=O)N(C)CCOCOCCOC)Cc2ccccc2)OC1=O [Compound IV, (2R)-2-benzyl-3-((2-methoxyethoxy-methoxyethyl)methylaminocarbonyl)propionyl-His amide of (2'S,1'R,5S)-3-ethyl-5-(1'-hydroxy 2'-amino-3'-cyclohexylpropyl) -oxazolidin-2-one] | 18.2 mmHg | 14.5 mmHg | 13.0 mmHg | 13.3 mmHg | 14.2 mmHg | 16.3 mmHg | 14.9 mmHg | 16.2 mmHg
C=C(C[C@H](O)[C@H](CC1CCCCC1)NC(=O)C(Cc1cnc[nH]1)NC(=O)C(Cc1ccccc1)NC(=O)OC(C)(C)C)C(=O)NCCC(C)C (stereo partly drawn) [Compound IX, Boc-Phe-His amide of (4S,5S) N-(3-methylbutyl)-5-amino-6-cyclohexyl-1-hexen-4-ol-2-carboxamide] | 22.2 mmHg | 22.5 mmHg | 18.1 mmHg | 15.8 mmHg | 19.5 mmHg | 22.4 mmHg | 24.3 mmHg | 24.2 mmHg
CC(C)(C)OC(=O)NC(Cc1ccccc1)C(=O)NC(Cc1cnc[nH]1)C(=O)NC(CC1CCCCC1)C(O)CSC1CCCCC1 (stereo not drawn) [Compound VI, Boc-Phe-His amide of 3-amino-4 cyclohexyl 1 cyclohexylmercapto-2-hydroxybutane] | 21.0 mmHg | 16.5 mmHg | 16.5 mmHg | 15.2 mmHg | 14.7 mmHg | 21.7 mmHg | 22.4 mmHg | 19.9 mmHg
CC(C)CC(=O)NCC[C@H](O)[C@H](CC1CCCCC1)NC(=O)C(Cc1cnc[nH]1)NC(=O)C(Cc1ccccc1)NC(=O)OC(C)(C)C (stereo partly shown) [Compound VIII] | 19.4 mmHg | 17.0 mmHg | 16.5 mmHg | 15.4 mmHg | 18.4 mmHg | 21.2 mmHg | 20.5 mmHg | 21.9 mmHg
CC(C)(C)OC(=O)NC(Cc1ccccc1)C(=O)NC(Cc1cnc[nH]1)C(=O)N[C@@H](CC1CCCCC1)[C@@H](O)[C@@H](O)CN (stereo partly drawn) [Compound X, Boc-Phe-His amide (4-amino) of (2S,3R,4S) 1,4-diamino-2,3-dihydroxy-5-cyclohexylpentane] | 20.8 mmHg | 20.6 mmHg | 20.6 mmHg | 15.9 mmHg | 15.1 mmHg | 19.1 mmHg | 20.6 mmHg | 21.7 mmHg
C=C(C[C@H](O)[C@H](O)[C@H](CC1CCCCC1)NC(=O)C(Cc1cnc[nH]1)NC(=O)C(Cc1ccccc1)NC(=O)OC(C)(C)C)C(=O)[O-].[Na+] (stereo partly drawn) [Compound XII, Boc-Phe-His amide of (4S,5R,6S)-6-amino-7-cyclohexyl-4,5-dihydroxy-1-hepten-2-oic acid sodium salt] | 19.3 mmHg | 12.5 mmHg | 10.3 mmHg | 12.4 mmHg | 12.3 mmHg | 12.3 mmHg | 14.6 mmHg | 16.3 mmHg
CC(C)CC(NC(=O)C(Cc1ccccc1)NC(=O)CCCC(=O)O)C(=O)N[C@@H](CC1CCCCC1)[C@@H](O)[C@@H](O)CC(C)C (stereo partly drawn) [Compound XIII, 4-Carboxybutyroyl-Phe-Leu amide of 2(S)-amino 1-cyclohexyl 3(R),4(S)-dihydroxy 6-methylheptane] | 19.5 mmHg | 17.6 mmHg | 17.2 mmHg | 15.6 mmHg | 16.4 mmHg | 16.3 mmHg | 17.5 mmHg | 15.3 mmHg
CCOC(=O)[C@H](C)NC(Cc1ccccc1)C(=O)NC(Cc1cnc[nH]1)C(=O)N[C@@H](CC1CCCCC1)[C@@H](O)[C@@H](O)CC(C)C (stereo partly drawn) [Compound XIV, (1(S)-(Ethoxycarbonyl)-ethyl)-Phe-His amide of 2 (S)-amino 1-cyclohexyl-3(R),4(S)-dihydroxy 6-methylheptane] | 21.0 mmHg | 16.8 mmHg | 14.0 mmHg | 15.1 mmHg | 14.6 mmHg | 16.4 mmHg | 17.9 mmHg | 19.6 mmHg
CC[C@@H]1C(=O)OC[C@@H]1Cc1cncn1C [Pilocarpine, reference compound] | 17.6 mmHg | 14.4 mmHg | 13.0 mmHg | 11.9 mmHg | 13.0 mmHg | 12.6 mmHg | 16.4 mmHg | 17.7 mmHg
Boc-Phe-His amide of (2S,4S,1'R,2'S)-2-(2-amino-7-cyclohexyl-4,5-dihydroxyheptan-2-oic acid sodium salt [Compound XI] | 18.5 mmHg | 13.4 mmHg | 11.4 mmHg | 10.6 mmHg | 14.6 mmHg | 16.1 mmHg | 15.7 mmHg | 19.0 mmHg
Boc-Phe-Histidinyl-4-amino-3-hydroxy 5-cyclohexylpentanoic acid amide of 2 methylbutylamine [Compound VII] | 19.7 mmHg | 17.2 mmHg | 13.8 mmHg | 14.3 mmHg | 14.8 mmHg | 19.3 mmHg | 21.1 mmHg | 22.7 mmHg
